Experimental data as given in US20200216417A1, “INHIBITORS OF FIBROBLAST ACTIVATION PROTEIN” (Praxis Biotech LLC, priority 2019, published 2020).
Like-named read-outs stand apart in the source and are kept apart here.

Key:
[1] = molecular target: T1, recombinant human DPP9 (rhDPP9) (Homo sapiens, UniProt Q86TI2); test: DPP9 enzymatic activity assay, 40 ng rhDPP9, HEPES buffer; type: biochemical; conditions: Table 3A
T1 construct: purchased R&S system / R&D systems (both sic) 5419-SE

[2] = molecular target: T2, recombinant human DPPIV (rhDPPIV) (Homo sapiens, UniProt P27487); test: DPPIV enzymatic activity assay, H-Gly-Pro-pNA; type: biochemical
T2 construct: purchased R&S system (so in the source)
T2 sequence (P27487 whole entry): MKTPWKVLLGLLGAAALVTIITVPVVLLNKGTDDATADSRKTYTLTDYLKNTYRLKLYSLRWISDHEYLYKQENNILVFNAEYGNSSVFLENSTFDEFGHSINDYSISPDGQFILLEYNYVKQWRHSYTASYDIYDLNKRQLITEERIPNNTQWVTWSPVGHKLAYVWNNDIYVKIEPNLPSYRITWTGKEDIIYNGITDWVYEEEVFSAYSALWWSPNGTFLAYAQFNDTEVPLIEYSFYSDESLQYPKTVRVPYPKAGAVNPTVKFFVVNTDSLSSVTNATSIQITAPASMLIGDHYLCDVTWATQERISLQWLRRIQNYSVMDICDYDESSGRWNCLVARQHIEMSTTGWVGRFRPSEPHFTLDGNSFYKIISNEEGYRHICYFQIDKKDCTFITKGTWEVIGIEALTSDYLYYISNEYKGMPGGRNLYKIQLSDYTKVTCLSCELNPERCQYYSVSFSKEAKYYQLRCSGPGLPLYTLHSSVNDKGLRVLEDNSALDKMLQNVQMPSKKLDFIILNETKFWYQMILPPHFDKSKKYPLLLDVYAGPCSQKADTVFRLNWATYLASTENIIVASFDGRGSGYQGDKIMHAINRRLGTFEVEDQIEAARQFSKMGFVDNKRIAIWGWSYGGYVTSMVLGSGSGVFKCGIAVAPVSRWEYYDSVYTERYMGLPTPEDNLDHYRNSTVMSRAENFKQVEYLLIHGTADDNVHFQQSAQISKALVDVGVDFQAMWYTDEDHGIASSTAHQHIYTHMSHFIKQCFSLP

[3] = molecular target: T3, recombinant human PREP (rhPREP) (Homo sapiens, UniProt P48147); test: PREP enzymatic activity assay, Z-Gly-Pro-AMC; type: biochemical; conditions: Table 3B
T3 sequence (P48147 1-710): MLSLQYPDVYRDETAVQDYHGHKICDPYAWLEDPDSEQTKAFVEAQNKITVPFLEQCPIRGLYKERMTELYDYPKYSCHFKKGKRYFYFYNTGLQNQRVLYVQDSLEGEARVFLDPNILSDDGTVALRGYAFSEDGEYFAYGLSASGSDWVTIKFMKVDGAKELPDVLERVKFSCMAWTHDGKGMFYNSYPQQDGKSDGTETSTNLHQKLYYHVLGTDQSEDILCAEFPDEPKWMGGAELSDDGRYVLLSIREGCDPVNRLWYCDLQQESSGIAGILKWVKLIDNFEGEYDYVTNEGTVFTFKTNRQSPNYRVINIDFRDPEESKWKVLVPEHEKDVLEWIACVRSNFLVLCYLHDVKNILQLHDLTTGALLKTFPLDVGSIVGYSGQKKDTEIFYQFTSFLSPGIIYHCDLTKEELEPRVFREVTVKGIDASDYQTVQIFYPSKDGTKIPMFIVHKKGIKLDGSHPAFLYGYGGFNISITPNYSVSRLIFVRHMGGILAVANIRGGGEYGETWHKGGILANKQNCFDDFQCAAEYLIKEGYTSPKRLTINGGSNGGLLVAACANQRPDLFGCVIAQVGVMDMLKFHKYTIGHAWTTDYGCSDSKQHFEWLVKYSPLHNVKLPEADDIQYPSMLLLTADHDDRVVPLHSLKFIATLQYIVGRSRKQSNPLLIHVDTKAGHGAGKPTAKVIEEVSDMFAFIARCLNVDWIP

[4] = molecular target: T4, recombinant human FAPα (rhFAPα) (Homo sapiens, UniProt Q12884); test: FAPα enzymatic exopeptidase (dipeptidase) activity assay, Z-Gly-Pro-AMC; type: biochemical; conditions: for inhibition at 1 µM / rhFAPα (% exo inh @ 1 μM): exopeptidase inhibition at 1 μM test compound
T4 construct: purchased R&S system (so in the source)
T4 sequence (Q12884 1-760): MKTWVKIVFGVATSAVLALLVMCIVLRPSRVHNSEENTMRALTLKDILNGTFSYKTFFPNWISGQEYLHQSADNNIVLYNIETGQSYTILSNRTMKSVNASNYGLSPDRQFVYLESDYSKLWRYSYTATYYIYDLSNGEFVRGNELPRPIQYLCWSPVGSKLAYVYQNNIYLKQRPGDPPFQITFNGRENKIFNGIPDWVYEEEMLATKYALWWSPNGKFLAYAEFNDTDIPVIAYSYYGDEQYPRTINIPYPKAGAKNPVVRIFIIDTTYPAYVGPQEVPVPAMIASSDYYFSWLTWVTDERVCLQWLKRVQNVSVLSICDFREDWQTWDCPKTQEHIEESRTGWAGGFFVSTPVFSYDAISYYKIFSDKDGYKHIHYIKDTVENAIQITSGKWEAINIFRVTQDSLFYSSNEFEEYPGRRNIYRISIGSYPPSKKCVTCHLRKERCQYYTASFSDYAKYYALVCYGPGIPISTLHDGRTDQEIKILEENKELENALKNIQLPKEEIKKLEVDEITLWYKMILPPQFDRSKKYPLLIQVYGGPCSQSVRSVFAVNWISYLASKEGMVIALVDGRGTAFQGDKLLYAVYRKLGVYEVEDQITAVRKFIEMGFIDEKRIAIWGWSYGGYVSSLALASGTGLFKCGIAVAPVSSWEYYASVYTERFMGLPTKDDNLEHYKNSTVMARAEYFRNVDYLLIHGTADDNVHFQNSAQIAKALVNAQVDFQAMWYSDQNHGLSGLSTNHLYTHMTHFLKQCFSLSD

[5] = molecular target: T1, recombinant human DPP9 (rhDPP9); test: DPP9 inhibition assay, 10 ng rhDPP9, Tris-HCl/BSA buffer; type: biochemical; conditions: Table 3B
[6] = test system: human AML cell line MV4-11; test: Cytotoxicity assay in human leukemia cell lines (Cell-Titer Glo); conditions: MV4-11, 48 h, read-out: MV4-11 viability IC50, μM
DPPIV = molecular target: T5, DPPIV (Mus musculus, UniProt P28843); test: DPPIV enzymatic activity in mouse plasma (H-Gly-Pro-AMC); type: biochemical, C57BL/6 mouse; conditions: H-Gly-Pro-AMC substrate
T5 construct: from tissue; host or cells: C57BL/6 mouse plasma (EDTA)
T5 sequence (P28843 37-760 limits assumed): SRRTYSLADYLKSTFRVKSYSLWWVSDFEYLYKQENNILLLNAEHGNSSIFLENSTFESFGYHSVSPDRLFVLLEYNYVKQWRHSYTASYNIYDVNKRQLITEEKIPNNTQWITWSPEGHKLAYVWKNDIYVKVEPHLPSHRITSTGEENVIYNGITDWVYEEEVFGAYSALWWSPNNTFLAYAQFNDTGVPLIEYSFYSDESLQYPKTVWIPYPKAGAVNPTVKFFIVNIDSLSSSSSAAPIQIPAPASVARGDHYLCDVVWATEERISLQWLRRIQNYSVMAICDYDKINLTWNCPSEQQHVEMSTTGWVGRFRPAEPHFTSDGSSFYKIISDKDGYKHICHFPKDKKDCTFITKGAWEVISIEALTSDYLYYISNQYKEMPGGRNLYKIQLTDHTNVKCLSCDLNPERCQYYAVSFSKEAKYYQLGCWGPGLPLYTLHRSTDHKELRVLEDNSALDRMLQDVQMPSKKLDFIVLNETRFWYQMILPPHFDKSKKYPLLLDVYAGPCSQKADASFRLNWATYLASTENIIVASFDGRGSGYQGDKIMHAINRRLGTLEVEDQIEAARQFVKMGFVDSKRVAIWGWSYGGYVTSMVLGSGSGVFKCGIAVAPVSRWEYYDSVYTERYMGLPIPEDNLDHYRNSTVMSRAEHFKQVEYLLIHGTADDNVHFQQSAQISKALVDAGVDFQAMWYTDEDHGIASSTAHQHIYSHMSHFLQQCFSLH
Description: Approximately 500 μL of whole blood from one C57BL/6 mouse was harvested into BD Microtainer® tubes (K2) EDTA (#365974, Becton Dickinson and Co.) via terminal cardiac puncture. The blood sample was immediately centrifuged at approximately 9000 g at 4° C. for 5 minutes. Plasma was separated and stored at −80° C. in aliquots of 300 μL. To assay baseline DPPIV enzymatic exopeptidase activity, 5 μL of thawed, mouse plasma was diluted (1:5) in buffer (100 mM Tris-HCl, 400 mM NaCl, 50 mM salicylic acid, 1 mM EDTA, pH 7.5) and mixed with 35 μL of the same buffer before being pre-incubated with different concentrations of 10 μL of test compounds or DMSO vehicle for 15 minutes at 37° C. in 96-well black plates (Nunc, #237108). After pre-incubation, 50 μL of 200 μM dipeptide substrate H-Gly-Pro-AMC (Bachem, # L-1225) was added to the mixture. The assay was performed for 1 hour at 37° C. 7-Amino-4-Methylcoumarin (AMC) release was detected measuring fluorescence at an excitation wavelength of 360 nm and an emission wavelength of 460 nm using a Multifunction Microplate Reader (Synergy 4, Biotek). All measurements were carried out at least in duplicate.

[7] = upon standing in pH 7.8; cyclization (Narra et al., 2007); cited from earlier work
[8] = Table 3B, read-out: rhFAPα % exo inh @ 1 μM

T1 sequence (Q86TI2 whole entry): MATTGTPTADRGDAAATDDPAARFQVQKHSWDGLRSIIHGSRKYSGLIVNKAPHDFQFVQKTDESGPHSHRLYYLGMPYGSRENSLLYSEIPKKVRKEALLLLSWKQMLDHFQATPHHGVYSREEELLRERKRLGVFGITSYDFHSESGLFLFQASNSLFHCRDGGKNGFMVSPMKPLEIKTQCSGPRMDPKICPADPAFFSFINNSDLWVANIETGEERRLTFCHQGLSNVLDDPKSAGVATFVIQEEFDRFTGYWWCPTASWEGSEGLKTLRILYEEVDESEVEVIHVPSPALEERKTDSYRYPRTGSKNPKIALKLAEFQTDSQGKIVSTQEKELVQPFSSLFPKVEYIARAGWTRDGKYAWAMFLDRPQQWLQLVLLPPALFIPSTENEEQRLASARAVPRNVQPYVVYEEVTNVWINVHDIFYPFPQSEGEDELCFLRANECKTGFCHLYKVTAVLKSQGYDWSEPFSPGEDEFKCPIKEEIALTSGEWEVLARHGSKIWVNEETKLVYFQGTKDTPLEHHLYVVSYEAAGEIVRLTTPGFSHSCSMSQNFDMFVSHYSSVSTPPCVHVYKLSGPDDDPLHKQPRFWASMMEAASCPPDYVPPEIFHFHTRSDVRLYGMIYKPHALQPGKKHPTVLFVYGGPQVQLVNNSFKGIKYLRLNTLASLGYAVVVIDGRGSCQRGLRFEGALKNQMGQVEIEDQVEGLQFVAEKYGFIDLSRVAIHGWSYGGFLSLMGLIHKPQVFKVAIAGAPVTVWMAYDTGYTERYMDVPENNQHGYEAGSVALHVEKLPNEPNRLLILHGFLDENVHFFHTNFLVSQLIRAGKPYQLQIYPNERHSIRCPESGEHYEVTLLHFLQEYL

SMILES | IC50 [1] [µM] | IC50 ([2]; Table 3A) [µM] | IC50 ([2]; Table 3B) [µM] | IC50 [3] [µM] | IC50 ([4]; Table 3B, read-out: rhFAP IC50) [µM] | inhibition at 1 µM ([4]; Table 2, read-out: rhFAPα (% exo inh @ 1 μM)) [%] | inhibition at 1 µM [4, 8] [%] | IC50 ([4]; exopeptidase, Table 2, read-out: rhFAPα (exo IC50)) [µM] | IC50 ([4]; exopeptidase, Table 3A, read-out: rhFAPα (exo IC50)) [µM] | IC50 [5] [µM] | IC50 (DPPIV) [µM] | IC50 [6] [µM] | rhFAPα (% exo inh @ 1 μM) ([4]; Table 2) | rhFAPα (% exo inh @ 1 μM) ([4]; Table 3B) | stability of protease inhibitory activity [7]
C=C(Cc1cnccc1C(=O)NCC(=O)N1CC(F)(F)C[C@H]1C#N)c1ccc(F)cc1 [Compound 14, (S)—N-(2-(2-cyano-4,4-difluoropyrrolidin-1-yl)-2-oxoethyl)-3-(2-(4-fluorophenyl)allyl)isonicotinamide] | 1 to 10 | > 10 | > 10 | 1 to 10 | < 1 | > 50 | > 50 | < 1 | < 1 | 1 to 10 | – | – | – | – | –
COc1ccc(/C=C/c2cnccc2C(=O)NCC(=O)N2CC(F)(F)C[C@H]2C#N)cc1 [Compound 15] | – | – | > 10 | > 10 | < 1 | – | > 50 | – | – | < 1 | – | > 10 | – | – | –
N#C[C@@H]1CC(F)(F)CN1C(=O)CNC(=O)c1ccncc1/C=C/c1ccc2cc(Cl)ccc2c1 [Compound 40] | – | – | 1 to 10 | > 10 | < 1 | – | > 50 | – | – | < 1 | – | 3 to 10 | – | – | –
COc1ccc(C#Cc2ccc3nccc(C(=O)NCC(=O)N4CC(F)(F)C[C@H]4C#N)c3c2)cc1 [Compound 41] | – | – | > 10 | > 10 | < 1 | – | > 50 | – | – | < 1 | – | > 10 | – | – | –
N#C[C@@H]1CC(F)(F)CN1C(=O)CNC(=O)c1ccnc2ccc(/C=C/c3ccc(C(F)(F)F)nc3)cc12 [Compound 46] | – | – | > 10 | > 10 | < 1 | – | > 50 | – | – | < 1 | – | < 3 | – | – | –
N#C[C@@H]1CC(F)(F)CN1C(=O)CNC(=O)c1ccnc2ccc(/C=C/c3ccnc(C(F)(F)F)c3)cc12 [Compound 194] | – | – | 1 to 10 | > 10 | < 1 | – | > 50 | – | – | < 1 | – | < 3 | – | – | –
CC(C)[C@H](N)C(=O)N1CCC[C@H]1B(O)O [Val-boroPro, reference compound] | – | – | – | – | – | – | – | – | – | – | – | < 3 | – | – | rapidly loses protease inhibitory activity

Now from value to compound, other results behind:

IC50 [1] [µM] | IC50 ([2]; Table 3A) [µM] | IC50 ([2]; Table 3B) [µM] | IC50 [3] [µM] | IC50 ([4]; Table 3B, read-out: rhFAP IC50) [µM] | inhibition at 1 µM ([4]; Table 2, read-out: rhFAPα (% exo inh @ 1 μM)) [%] | inhibition at 1 µM [4, 8] [%] | IC50 ([4]; exopeptidase, Table 2, read-out: rhFAPα (exo IC50)) [µM] | IC50 ([4]; exopeptidase, Table 3A, read-out: rhFAPα (exo IC50)) [µM] | IC50 [5] [µM] | IC50 (DPPIV) [µM] | SMILES | IC50 [6] [µM] | rhFAPα (% exo inh @ 1 μM) ([4]; Table 2) | rhFAPα (% exo inh @ 1 μM) ([4]; Table 3B) | stability of protease inhibitory activity [7]
– | – | > 10 | > 10 | < 1 | – | > 50 | – | – | < 1 | – | N#C[C@@H]1CC(F)(F)CN1C(=O)CNC(=O)c1ccnc2ccc(/C=C/c3ccc(Cl)cc3)cc12 [Compound 34] | < 3 | – | – | –
– | – | > 10 | > 10 | < 1 | – | > 50 | – | – | < 1 | – | N#C[C@@H]1CC(F)(F)CN1C(=O)CNC(=O)c1ccnc2ccc(/C=C/c3ccc(F)cc3)cc12 [Compound 44] | < 3 | – | – | –
– | – | > 10 | > 10 | < 1 | – | > 50 | – | – | < 1 | – | Cc1ccc(/C=C/c2ccc3nccc(C(=O)NCC(=O)N4CC(F)(F)C[C@H]4C#N)c3c2)cn1 [Compound 45] | 3 to 10 | – | – | –
– | – | > 10 | > 10 | < 1 | – | > 50 | – | – | < 1 | – | COc1ccc(/C=C/c2ccc3nccc(C(=O)NCC(=O)N4CC(F)(F)C[C@H]4C#N)c3c2)cc1 [Compound 47] | 3 to 10 | – | – | –
– | – | > 10 | > 10 | < 1 | – | > 50 | – | – | < 1 | – | N#C[C@@H]1CC(F)(F)CN1C(=O)CNC(=O)c1ccnc2ccc(/C=C/c3ccc(O)nc3)cc12 [Compound 139] | > 10 | – | – | –
– | – | 1 to 10 | > 10 | < 1 | – | > 50 | – | – | < 1 | – | Cc1cc(/C=C/c2ccc3nccc(C(=O)NCC(=O)N4CC(F)(F)C[C@H]4C#N)c3c2)ccn1 [Compound 192] | < 3 | – | – | –
– | – | > 10 | > 10 | < 1 | – | > 50 | – | – | < 1 | – | COc1cc(/C=C/c2ccc3nccc(C(=O)NCC(=O)N4CC(F)(F)C[C@H]4C#N)c3c2)ccn1 [Compound 193] | < 3 | – | – | –
– | – | – | – | – | – | – | – | – | – | < 10 | N#CC1CC(F)(F)CN1C(=O)CNC(=O)c1ccnc2ccccc12 (stereo not drawn) [Ref. Comp., reference compound] | – | +++ (+++ refers to >50% inhibition at 1 μM test compound) | +++ (+++ refers to >50% inhibition at 1 μM test compound) | –
